In ChEMBL document CHEMBL1165899, “Synthesis and antitumor evaluation of novel cyclic arylsulfonylureas: ADME-T and pharmacophore prediction” (2010):

Assays:
Format in all cases: functional
OVCAR-8 = assay: Growth inhibition of human OVCAR8 cells at 10 uM after 48 hrs by sulforhodamine B assay relative to control; conditions: OVCAR-8, 48 h, read-out: GI
IGROV-1 = assay: Growth inhibition of human IGROV1 cells at 10 uM after 48 hrs by sulforhodamine B assay relative to control; conditions: IGROV-1, 48 h, read-out: GI
SK-MEL-2 = assay: Growth inhibition of human SK-MEL-2 cells at 10 uM after 48 hrs by sulforhodamine B assay relative to control; conditions: SK-MEL-2, 48 h, read-out: GI
RXF 393 = assay: Growth inhibition of human RXF393 cells at 10 uM after 48 hrs by sulforhodamine B assay relative to control; conditions: RXF 393, 48 h, read-out: GI
M14 = assay: Growth inhibition of human M14 cells at 10 uM after 48 hrs by sulforhodamine B assay relative to control; conditions: M14, 48 h, read-out: GI

| SMILES | inhibition of growth at 10 µM (OVCAR-8) [%] | inhibition of growth at 10 µM (IGROV-1) [%] | inhibition of growth at 10 µM (SK-MEL-2) [%] | inhibition of growth at 10 µM (RXF 393) [%] | inhibition of growth at 10 µM (M14) [%] |
| --- | --- | --- | --- | --- | --- |
| COc1ccc(/C=C2\NC(=O)N(S(=O)(=O)c3ccc(Cl)cc3)C2=O)cc1 | -1.23 | -1.97 | 8.98 | 84.1 | – |
| O=C1CC(=O)N(S(=O)(=O)c2ccc(Cl)cc2)C(=O)N1c1ccccc1 | 58.9 | 34.1 | 65.1 | – | 8.19 |
| O=c1c2ccccc2n(S(=O)(=O)c2ccccc2)c(=O)n1-c1ccccc1 | 33.2 | 86.8 | 70.4 | – | 1.02 |
| COc1ccc(N2C(=O)CC(=O)N(S(=O)(=O)c3ccc(Cl)cc3)C2=O)cc1 | 42.4 | 76.5 | 61.1 | – | -3.04 |
| COc1ccc(-n2c(=O)c3ccccc3n(S(=O)(=O)c3ccccc3)c2=O)cc1 | 26 | 63.2 | -43.2 | 43 | 56.5 |
| O=C1N/C(=C\c2ccc(Cl)cc2)C(=O)N1S(=O)(=O)c1ccccc1 | 6.79 | 1.13 | 19.9 | 7.42 | – |
| O=C1N/C(=C\c2ccc(Cl)cc2)C(=O)N1S(=O)(=O)c1ccc(Cl)cc1 | 4.01 | 81 | 17.6 | 76.2 | -20.1 |
| CN(C)c1ccc(/C=C2\NC(=O)N(S(=O)(=O)c3ccccc3)C2=O)cc1 | 1.17 | 107 | 3.98 | 80.3 | -2.88 |
| COc1ccc(/C=C2\NC(=O)N(S(=O)(=O)c3ccccc3)C2=O)cc1 | 5.23 | 115 | 11.6 | 96.5 | – |
| O=c1c2ccccc2n(S(=O)(=O)c2ccc(Cl)cc2)c(=O)n1-c1ccccc1 | 40.9 | 91.4 | 79.3 | – | 17.4 |
| O=C1N/C(=C\c2ccccc2)C(=O)N1S(=O)(=O)c1ccc(Cl)cc1 | 3.88 | -9.05 | 11.7 | 0.92 | – |
| Cc1ccc(S(=O)(=O)N2C(=O)CC(=O)N(c3ccc(Cl)cc3)C2=O)cc1 | 54.1 | 65.6 | 73.9 | – | -7.35 |
